Results reported in ChEMBL document CHEMBL1201862, “PubChem BioAssay data set” (2004).
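Values below derive from 48-hour exposures of cells grown in 96-well plates, with endpoints linearly interpolated between the two concentrations bracketing the appropriate inhibition level. At the GI50, growth is halved.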 The source made the active and inactive calls. Rule as the data show it: active = GI50 up to about 1.1 µM and inactive = higher.

Columns and labels:
Experiment in all cases: NCI-60 cell line screen, 48 h
UACC-62 = test system: UACC-62
M14 = test system: M14
Malme-3M = test system: Malme-3M
HOP-62 = test system: HOP-62
OVCAR-4 = test system: OVCAR-4
A549 = test system: A549
LOX IMVI = test system: LOX IMVI
SW-620 = test system: SW-620
KM12 = test system: KM12
K562 = test system: K562
ACHN = test system: ACHN
SF-539 = test system: SF-539
HL-60 = test system: HL-60
786-0 = test system: 786-0
RPMI-8226 = test system: RPMI-8226
HOP-92 = test system: HOP-92

Measured: GI50

N#CCCN(CCC#N)c1ccc(/C=C(/NC(=O)c2cc([N+](=O)[O-])ccc2Cl)C(=O)N=[N+]=[N-])cc1
inactive: UACC-62 > 100 µM | M14 > 100 µM | Malme-3M > 100 µM | HOP-62 > 100 µM | OVCAR-4 > 100 µM | A549 > 100 µM | LOX IMVI > 100 µM | SW-620 > 100 µM | KM12 > 100 µM | K562 > 100 µM | ACHN > 100 µM | SF-539 > 100 µM | HL-60 > 100 µM | 786-0 > 100 µM | RPMI-8226 > 100 µM

CCCCCCCCCC1CC(=O)OC23CCCC(=O)C12O3 (centres undefined)
inactive: UACC-62 80 µM | HOP-92 > 100 µM | M14 > 100 µM | Malme-3M > 100 µM | HOP-62 > 100 µM | OVCAR-4 > 100 µM | A549 > 100 µM | LOX IMVI 70.5 µM | SW-620 > 100 µM | KM12 82.2 µM | K562 55.1 µM | ACHN > 100 µM | SF-539 > 100 µM | HL-60 26.7 µM | 786-0 > 100 µM | RPMI-8226 > 100 µM

COc1ccc2c(c1)C1C(CO2)C(c2ccccc2)=NN1c1ccccc1 (centres undefined)
inactive: HOP-92 > 100 µM | Malme-3M > 100 µM | HOP-62 > 100 µM | A549 > 100 µM | LOX IMVI > 100 µM | SW-620 > 100 µM | KM12 > 100 µM | K562 > 100 µM | ACHN > 100 µM | SF-539 > 100 µM | HL-60 99.5 µM | 786-0 > 100 µM | RPMI-8226 48.1 µM

O=S(=O)(c1ccccc1)C1CN2OC1(S(=O)(=O)c1ccccc1)CC21CCCCC1 (centres undefined)
inactive: UACC-62 > 100 µM | M14 > 100 µM | Malme-3M > 100 µM | HOP-62 > 100 µM | OVCAR-4 37.1 µM | A549 > 100 µM | LOX IMVI > 100 µM | SW-620 > 100 µM | KM12 > 100 µM | K562 85.9 µM | ACHN > 100 µM | SF-539 > 100 µM | HL-60 44.9 µM | 786-0 > 100 µM | RPMI-8226 86.1 µM

COc1ccc(/C=C/C(=O)c2sc(-n3nc(-c4ccccc4)cc3-c3ccccc3)nc2C)cc1OC
inactive: UACC-62 13.9 µM | M14 62.8 µM | Malme-3M 65.8 µM | HOP-62 57.1 µM | OVCAR-4 38.5 µM | A549 39.4 µM | LOX IMVI 28.9 µM | SW-620 43.8 µM | KM12 28.1 µM | K562 23.6 µM | ACHN 49.8 µM | SF-539 26.7 µM | HL-60 25.2 µM | 786-0 36.4 µM | RPMI-8226 22.1 µM

c1ccc(CN(Cn2cccn2)Cn2cccn2)nc1
inactive: UACC-62 43.8 µM | HOP-92 > 100 µM | M14 > 100 µM | HOP-62 > 100 µM | OVCAR-4 > 100 µM | A549 > 100 µM | LOX IMVI > 100 µM | SW-620 > 100 µM | KM12 > 100 µM | K562 > 100 µM | ACHN > 100 µM | HL-60 47.8 µM | 786-0 > 100 µM | RPMI-8226 29.4 µM

COc1cc(/C=C(\C#N)C(=O)c2ccccc2)ccc1O
inactive: UACC-62 > 100 µM | M14 > 100 µM | Malme-3M > 100 µM | HOP-62 > 100 µM | OVCAR-4 > 100 µM | A549 > 100 µM | LOX IMVI > 100 µM | SW-620 > 100 µM | KM12 > 100 µM | K562 > 100 µM | ACHN > 100 µM | SF-539 > 100 µM | HL-60 46.6 µM | 786-0 > 100 µM | RPMI-8226 > 100 µM

O=C1OC(c2ccc(Cl)c3ccccc23)c2ccccc21 (centres undefined)
inactive: UACC-62 63.2 µM | HOP-92 > 100 µM | M14 > 100 µM | Malme-3M > 100 µM | HOP-62 > 100 µM | OVCAR-4 63.5 µM | A549 76.7 µM | KM12 > 100 µM | K562 55.7 µM | ACHN > 100 µM | SF-539 > 100 µM | HL-60 > 100 µM | 786-0 67.6 µM | RPMI-8226 > 100 µM

COc1cc2c(cc1OC)C(CC(=O)NN=C(C)C)NCC2 (centres undefined)
inactive: UACC-62 > 100 µM | HOP-92 > 100 µM | M14 > 100 µM | Malme-3M > 100 µM | HOP-62 > 100 µM | OVCAR-4 > 100 µM | A549 > 100 µM | LOX IMVI > 100 µM | SW-620 > 100 µM | KM12 > 100 µM | K562 > 100 µM | ACHN > 100 µM | SF-539 > 100 µM | HL-60 > 100 µM | 786-0 > 100 µM | RPMI-8226 > 100 µM

O=C(Nc1cccc([N+](=O)[O-])c1)/C(=N\NC(=O)c1ccncc1)c1nc2ccc([N+](=O)[O-])cc2nc1O
inactive: UACC-62 58.7 µM | HOP-92 12.4 µM | M14 > 100 µM | Malme-3M > 100 µM | HOP-62 70 µM | OVCAR-4 > 100 µM | A549 39.5 µM | LOX IMVI 27.6 µM | SW-620 77.3 µM | KM12 42.2 µM | K562 21.5 µM | ACHN 19.7 µM | SF-539 32.8 µM | 786-0 > 100 µM | RPMI-8226 49.4 µM

COC(=O)C1CC/C(=N/C2c3ccccc3-c3ccccc32)N1 (centres undefined)
inactive: UACC-62 63 µM | HOP-92 14.1 µM | M14 > 100 µM | Malme-3M > 100 µM | HOP-62 > 100 µM | OVCAR-4 > 100 µM | A549 > 100 µM | LOX IMVI > 10 µM | SW-620 > 100 µM | KM12 > 100 µM | K562 > 100 µM | ACHN > 100 µM | HL-60 > 100 µM | 786-0 > 100 µM | RPMI-8226 61.5 µM

CC(C)(C)C1CCC(CI)(N=[N+]=[N-])CC1 (centres undefined)
inactive: UACC-62 > 100 µM | HOP-92 > 100 µM | M14 > 100 µM | Malme-3M > 100 µM | HOP-62 > 100 µM | OVCAR-4 > 100 µM | A549 > 100 µM | SW-620 > 100 µM | KM12 > 100 µM | K562 > 100 µM | ACHN > 100 µM | SF-539 > 100 µM | HL-60 42.8 µM | 786-0 > 100 µM | RPMI-8226 79.1 µM

N#CC(C(=O)/C(=N\NC(N)=O)C(C#N)c1ccccc1)c1ccccc1 (centres undefined)
inactive: UACC-62 > 100 µM | HOP-92 > 100 µM | M14 > 100 µM | Malme-3M > 100 µM | HOP-62 > 100 µM | OVCAR-4 > 100 µM | A549 > 100 µM | SW-620 > 100 µM | KM12 > 100 µM | K562 > 100 µM | ACHN > 100 µM | SF-539 > 100 µM | HL-60 > 100 µM | 786-0 > 100 µM | RPMI-8226 > 100 µM

N#Cc1ccc2cc3c(cc2c1)OCO3
inactive: UACC-62 > 100 µM | HOP-92 35.6 µM | M14 > 100 µM | HOP-62 > 100 µM | OVCAR-4 > 100 µM | LOX IMVI > 100 µM | KM12 > 100 µM | K562 89.5 µM | ACHN 59.3 µM | SF-539 27 µM | HL-60 77.1 µM | 786-0 > 100 µM | RPMI-8226 54.5 µM

COc1ccccc1NC(=O)CC(=O)n1nc(C)c(/N=N/c2ccccc2F)c1C
inactive: UACC-62 > 100 µM | HOP-92 37.7 µM | M14 > 100 µM | Malme-3M > 10 µM | HOP-62 32.6 µM | OVCAR-4 > 100 µM | A549 98.4 µM | LOX IMVI > 100 µM | SW-620 > 100 µM | KM12 > 100 µM | K562 > 31.6 µM | ACHN > 100 µM | SF-539 21.5 µM | HL-60 > 100 µM | 786-0 76.6 µM | RPMI-8226 > 100 µM

COc1cc2cc3c4c(cc(OC)c(OC)c4c2cc1OC)CCN3C(=O)OCCBr
inactive: UACC-62 60.4 µM | HOP-92 39.1 µM | Malme-3M > 100 µM | A549 28 µM | LOX IMVI 32.7 µM | SW-620 60.8 µM | KM12 60.7 µM | ACHN 50.9 µM | SF-539 22.4 µM | HL-60 39.1 µM | 786-0 55.8 µM

C/C1=N\[N-]C(=O)c2ccccc2C(=O)N/N=C(\C)c2cccc1n2.O=[N+]([O-])[O-].[Zn+2]
inactive: UACC-62 > 100 µM | M14 > 100 µM | Malme-3M > 100 µM | HOP-62 > 100 µM | OVCAR-4 > 100 µM | A549 > 100 µM | SW-620 > 100 µM | KM12 > 100 µM | K562 > 100 µM | ACHN > 100 µM | SF-539 > 100 µM | 786-0 > 100 µM | RPMI-8226 > 100 µM

NC(=O)c1cccc([N+](=O)[O-])c1
inactive: UACC-62 > 100 µM | M14 > 100 µM | Malme-3M > 100 µM | HOP-62 > 100 µM | A549 > 100 µM | LOX IMVI > 100 µM | SW-620 > 100 µM | KM12 > 100 µM | K562 > 100 µM | SF-539 > 100 µM | HL-60 > 100 µM | 786-0 > 100 µM | RPMI-8226 > 100 µM

Cn1cnnc1Sc1c([N+](=O)[O-])ncn1C
inactive: UACC-62 > 100 µM | HOP-92 26.5 µM | M14 > 100 µM | Malme-3M 16.4 µM | HOP-62 > 100 µM | OVCAR-4 > 100 µM | A549 > 100 µM | LOX IMVI 35.2 µM | SW-620 72.4 µM | KM12 > 100 µM | K562 29.2 µM | ACHN > 100 µM | SF-539 > 100 µM | 786-0 > 100 µM | RPMI-8226 40.5 µM
